Test results taken from PMC9951879, “Synthesis of New Shogaol Analogues as NRF2 Activators and Evaluation of Their Anti-Inflammatory Activity, Modes of Action and Metabolic Stability” (Antioxidants, 2023).
Like-named read-outs stand apart in the source and are kept apart here.

What was measured:
TNF-α = TNF-α ELISA in LPSEc-stimulated BV-2 cells; format: cell-based, mouse; conditions: LPSEc 200 ng/mL; for inhibition at 1 µM: Mus musculus, BV-2, 1 μM, read-out: percentage of TNF-α inhibition
Procedure: (§1) The anti-inflammatory activity of the STCs was determined in E. coli lipopolysaccharide (LPSEc; Sigma Aldrich, USA)-induced inflammation in NRF2-proficient and NRF2 siRNA-transfected mouse microglial (BV-2) cells. The NRF2 was silenced in BV-2 cells using NRF2 siRNA (Santa Cruz Biotechnology, Dallas, TX, USA) in Opti-MEM transfection medium (Thermo Fisher Scientific, USA) using Lipofectamine^TM LTX reagent with PLUS^TM reagent (Thermo Fisher Scientific, USA) following the manufacturer’s protocol and reported method. The cells (5 × 10^5 cells/well) were allowed to form a monolayer by incubating them for 24 h and then adding LPSEc (200 ng/mL) for 4 h. The STCs (1 µM) were then added and incubated for another 20 h. The nitric oxide (NO) level in cell supernatant was determined using the Griess reagent kit (Thermo Fisher Scientific, USA). The levels of proinflammatory cytokines (IL-1β, IL-6, IFN-γ, and TNF-α) in cell supernatant solutions were determined using commercially available ELISA kits (Abcam, Cambridge, UK). The cell pellets were lysed using Cell Lysis buffer (Thermo Fisher Scientific, Waltham, MA, USA) following the manufacturer’s instructions. The supernatant solution in the wells was replaced with PBS, and cells were detached by scraping, washed with PBS, and centrifuged to collect the cell pellet. The cell pellet was lysed on ice in a cell lysis buffer for half an hour, vortexing at regular intervals. The cell lysate was centrifuged at 15,000 rpm for 15 min at 4 °C. The clear lysate was stored at −80 °C until further use. The protein concentration was determined using Bradford’s assay kit (Thermo Fisher Scientific, USA) following the manufacturer’s instructions. The expression of COX-2, NF-κB p65, NRF2, and HO-1 in cell lysates was determined using commercially available ELISA kits (Abcam, St, Louis, Missouri, USA) following the manufacturer’s protocol. In addition, the thiol content was determined using a thiol quantification assay kit (Abcam, USA).

[1] = Liver microsomal stability, rat; format: in vitro ADME; conditions: rat liver microsomes, 1 μM (verapamil 0.5 μM)
Procedure: (§2) The liver microsomes of humans, rats, and mice were purchased from Merck (human, #M0567; rat, #M9066; mouse, #M9441). The metabolic stability of 6-shogaol and STCs (1 μM effective concentration; 5 μL) was mixed with liver microsomes (0.5 mg mL^−1; 445 μL) in a microcentrifuge tube. Verapamil (0.5 μM) was used as the positive control. The microsome and compound mixture were shaken on a plate shaker for 5 min to ensure homogeneity. NADPH (1 mM; 50 μL) was added to the mixture to start the metabolic reaction. The reaction mixture was incubated at 37 °C for 0, 3, 6, 15, 30, 45, and 60 min. The mixture (20 μL) was sampled and quenched with 180 μL of acetonitrile with internal standard (Donepezil 50 ng/mL) to terminate the metabolic reaction at each time point. Ultrapure water (80 μL) was added, and contents in the microcentrifuge tubes were centrifuged at 3800 rpm at 4 °C for 10 min. […] Each set of experiments was repeated three times in human, rat, and mouse liver microsomes. The concentration of the compounds versus time was plotted to determine the elimination rate constant (Kel). The intrinsic clearance (Clint) and half-life (t1/2) were calculated using the following equations.

IFN-γ = IFN-γ ELISA in LPSEc-stimulated BV-2 cells; format: cell-based, mouse; conditions: LPSEc 200 ng/mL; for IFN-γ level: 1 μM; for inhibition at 1 µM: Mus musculus, BV-2, 1 μM, read-out: percentage of IFN-γ inhibition
Procedure: as §1

[2] = system: NAD(P)H quinone oxidoreductase 1 (NQO1); assay: Prochaska microtiter plate bioassay, NQO1 induction in Hepa-1c1c7 cells; format: cell-based, mouse
Procedure: The effect of shogaol thiophene compounds (STCs) on NRF2 activation is determined by measuring the NAD(P)H quinone oxidoreductase 1 (NQO1) inducer activity, as reported in our previous studies. The mouse hepatoma cells (Hepa-1c1c7, 1 × 10^4 per well) were incubated with STCs (10, 1, 0.1, 0.01, and 0.001 µM) for 48 h. The cells were lysed using digitonin (0.8 mg/mL and 2 mM EDTA; Acros, UK), and the protein concentration was determined using Bradford’s assay kit (Thermo Fisher Scientific, USA). The cell lysate was incubated with a reaction mixture of 0.5 M Tris-Cl buffer (Calbiochem, USA), 7.5 mM FAD (Acros, UK), 150 mM glucose-6-phosphate (Calbiochem, San Diego, CA, USA), 2 U/mL glucose-6-phosphate dehydrogenase (Calbiochem, USA), 50 mM NADP+ (Sigma Aldrich, USA), 25 mM menadione (Sigma Aldrich, USA), and 0.7 mM MTT (Sigma Aldrich, USA) at 37 °C for 5 min. The absorbance was recorded at 610 nm using a microplate reader (Spectramax M3, Molecular Devices, San Jose, CA, USA), and the values were normalised to the total protein content.

NF-κB p65 = NF-κB p65 ELISA in LPSEc-stimulated BV-2 cell lysates; format: cell-based, mouse; conditions: LPSEc 200 ng/mL; for NF-κB p65 level: 1 μM; for inhibition at 1 µM: Mus musculus, BV-2, 1 μM, read-out: percent NF-κB inhibition
Procedure: as §1

IL-6 = IL-6 ELISA in LPSEc-stimulated BV-2 cells; format: cell-based, mouse; conditions: LPSEc 200 ng/mL; for IL-6 level: 1 μM; for inhibition at 1 µM: Mus musculus, BV-2, 1 μM, read-out: percentage of IL-6 inhibition
Procedure: as §1

KEAP1-NRF2 interaction = molecular target: T1, KEAP1-NRF2 interaction (Homo sapiens, UniProt Q14145); assay: KEAP1-Nrf2 inhibitor screening, fluorescence polarisation assay; format: binding; conditions: KEAP1 Kelch domain, read-out: IC50, NRF2-KEAP1 inhibition
T1 construct: purchased BPS Bioscience
T1 sequence (Q14145 2-624 limits assumed): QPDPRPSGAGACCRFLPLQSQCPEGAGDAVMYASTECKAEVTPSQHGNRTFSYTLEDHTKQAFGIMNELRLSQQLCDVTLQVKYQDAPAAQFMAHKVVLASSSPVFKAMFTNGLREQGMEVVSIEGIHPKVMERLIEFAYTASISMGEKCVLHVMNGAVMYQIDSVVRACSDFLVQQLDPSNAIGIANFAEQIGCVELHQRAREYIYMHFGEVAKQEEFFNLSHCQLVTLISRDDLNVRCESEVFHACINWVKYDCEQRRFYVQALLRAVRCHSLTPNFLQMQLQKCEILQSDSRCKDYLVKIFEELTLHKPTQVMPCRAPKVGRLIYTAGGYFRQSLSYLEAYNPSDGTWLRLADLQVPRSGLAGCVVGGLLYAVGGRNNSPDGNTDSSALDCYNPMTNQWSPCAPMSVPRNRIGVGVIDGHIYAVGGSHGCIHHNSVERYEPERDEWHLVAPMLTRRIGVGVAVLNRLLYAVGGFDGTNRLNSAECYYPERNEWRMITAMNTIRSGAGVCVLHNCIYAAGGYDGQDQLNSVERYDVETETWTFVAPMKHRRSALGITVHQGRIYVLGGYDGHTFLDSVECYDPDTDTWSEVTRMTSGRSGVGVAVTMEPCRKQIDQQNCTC
Procedure: The KEAP1-Nrf2 inhibitor screening assay kit (BPS Bioscience, San Diego, California, USA) was used to determine the effect of STCs in inhibiting KEAP1-NRF2 interaction following the manufacturer’s protocol and our reported method. The STC solutions were diluted with the assay buffer, and 5 μL of the STC solutions were incubated at room temperature for 30 min in the peptide mixture containing 0.5 μL NRF2 peptide (1 μM) and 20 μL KEAP1 (15 ng/μL). The fluorescence polarisation (FP) was measured using a microplate reader at λex 485 nm and λem 530 nm. The following equation was used to determine the per cent KEAP1-NRF2 inhibitory effect of the STCs. Keap1−Nrf2 inhbitory activity %=1−Relative FP of STC/Relative FP of postive control×100

IL-1β = IL-1β ELISA in LPSEc-stimulated BV-2 cells; format: cell-based, mouse; conditions: LPSEc 200 ng/mL; for IL-1β level: 1 μM; for inhibition at 1 µM: Mus musculus, BV-2, 1 μM, read-out: percentage of IL-1β inhibition
Procedure: as §1

COX-2 = COX-2 ELISA in LPSEc-stimulated BV-2 cell lysates; format: cell-based, mouse; conditions: LPSEc 200 ng/mL; for COX-2 level: 1 μM; for inhibition at 1 µM: Mus musculus, BV-2, 1 μM, read-out: percentage of COX-2 inhibition
Procedure: as §1

[3] = Liver microsomal stability, mouse; format: in vitro ADME; conditions: mouse liver microsomes, 1 μM (verapamil 0.5 μM)
Procedure: as §2

[4] = 1 μM, NRF2-proficient BV-2 cells

## CCCCC/C=C/C(=O)CCc1ccc(O)c(OC)c1 [6-shogaol, reference compound]
TNF-α; [4]
  TNF-α level: 1734.00 ± 51.00 pg/mL
TNF-α; 1 μM, NRF2-silenced BV-2 cells
  TNF-α level: 3113.00 ± 55.34 pg/mL
  percentage of TNF-α inhibition: no inhibition
TNF-α; NRF2-proficient BV-2 cells
  inhibition at 1 µM: 40.4%
[1]
  Clint: 11.51 ± 1.37 mL/min/g liver
  half-life at 1 μM: 6.32 min
IFN-γ; NRF2-proficient BV-2 cells
  IFN-γ level: 25.75 ± 0.72 pg/mL
  inhibition at 1 µM: 36.3%
IFN-γ; NRF2-silenced BV-2 cells
  IFN-γ level: 37.52 ± 1.01 pg/mL
  inhibition at 1 µM: 10.5%
[2]; Hepa-1c1c7 cells
  concentration toxic to the cells in the NQO1 assay: 10 µM
[2]; Mus musculus, Hepa-1c1c7, 48 h, Hepa-1c1c7 cells, 48 h, read-out: CD (concentration required to double the NQO1 level)
  EC (2-fold NQO1 induction): 4.12 ± 0.52 µM
NF-κB p65; NRF2-proficient BV-2 cells
  NF-κB p65 level: 70.54 ± 5.04 ng/mL
  inhibition at 1 µM: 44%
NF-κB p65; NRF2-silenced BV-2 cells
  NF-κB p65 level: 132.17 ± 4.52 ng/mL
  inhibition at 1 µM: 4.61%
IL-6; NRF2-proficient BV-2 cells
  IL-6 level: 435.67 ± 7.77 pg/mL
  inhibition at 1 µM: 53%
IL-6; NRF2-silenced BV-2 cells
  IL-6 level: 852.67 ± 5.69 pg/mL
  inhibition at 1 µM: 6.27%
KEAP1-NRF2 interaction
  IC50: 0.83 ± 0.1 µM
IL-1β; NRF2-proficient BV-2 cells
  IL-1β level: 43.30 ± 0.62 pg/mL
  inhibition at 1 µM: 53.7%
IL-1β; NRF2-silenced BV-2 cells
  IL-1β level: 88.57 ± 0.55 pg/mL
  inhibition at 1 µM: 5%
COX-2; NRF2-proficient BV-2 cells
  COX-2 level: 4.30 ± 0.10 ng/mL
  inhibition at 1 µM: 35.5%
COX-2; NRF2-silenced BV-2 cells
  COX-2 level: 6.03 ± 0.21 ng/mL
  inhibition at 1 µM: 11.7%
[3]
  Clint: 14.32 ± 1.51 mL/min/g liver
  half-life at 1 μM: 5.08 min

## COc1cc(CCC(=O)/C=C/c2cc(-c3ccccc3)cs2)ccc1O [STC5, (E)-5-(4-Hydroxy-3-methoxyphenyl)-1-(4-phenylthiophen-2-yl)pent-1-en-3-one]
TNF-α; [4]
  TNF-α level: 850.00 ± 77.90 pg/mL
TNF-α; 1 μM, NRF2-silenced BV-2 cells
  TNF-α level: 2581.00 ± 51.00 pg/mL
TNF-α; NRF2-proficient BV-2 cells
  inhibition at 1 µM: 70.8%
TNF-α; NRF2-silenced BV-2 cells
  inhibition at 1 µM: 17%
[1]
  Clint: 7.22 ± 1.23 mL/min/g liver
  half-life at 1 μM: 10.1 min
IFN-γ; NRF2-proficient BV-2 cells
  IFN-γ level: 14.34 ± 1.10 pg/mL
  inhibition at 1 µM: 42.7%
IFN-γ; NRF2-silenced BV-2 cells
  IFN-γ level: 31.19 ± 0.85 pg/mL
  inhibition at 1 µM: 25.6%
[2]; versus 6-shogaol
  times more potent than 6-shogaol (NRF2 activation): 65 times
NF-κB p65; NRF2-proficient BV-2 cells
  NF-κB p65 level: 41.5 ± 0.79 ng/mL
  inhibition at 1 µM: 67.1%
NF-κB p65; NRF2-silenced BV-2 cells
  NF-κB p65 level: 86.3 ± 1.03 ng/mL
  inhibition at 1 µM: 37.7%
IL-6; NRF2-proficient BV-2 cells
  IL-6 level: 212.33 ± 6.11 pg/mL
  inhibition at 1 µM: 77.1%
IL-6; NRF2-silenced BV-2 cells
  IL-6 level: 748.67 ± 8.33 pg/mL
  inhibition at 1 µM: 17.7%
KEAP1-NRF2 interaction
  IC50: 0.04 ± 0.001 µM
IL-1β; NRF2-silenced BV-2 cells
  IL-1β level: 72.50 ± 1.32 pg/mL
  inhibition at 1 µM: 22.3%
IL-1β; NRF2-proficient BV-2 cells
  inhibition at 1 µM: 71.4%
COX-2; NRF2-silenced BV-2 cells
  COX-2 level: 3.48 ± 0.09 ng/mL
  inhibition at 1 µM: 49.1%
COX-2; NRF2-proficient BV-2 cells
  inhibition at 1 µM: 76%
[3]
  Clint: 6.42 ± 1.52 mL/min/g liver
  half-life at 1 μM: 11.3 min

## COc1cc(CCC(=O)/C=C/c2ccc([N+](=O)[O-])s2)ccc1O [STC8, (E)-5-(4-Hydroxy-3-methoxyphenyl)-1-(5-nitrothiophen-2-yl)pent-1-en-3-one]
TNF-α; [4]
  TNF-α level: 1751.00 ± 77.90 pg/mL
TNF-α; 1 μM, NRF2-silenced BV-2 cells
  TNF-α level: 3130.33 ± 27.47 pg/mL
[1]
  Clint: 10.57 ± 1.48 mL/min/g liver
  half-life at 1 μM: 6.88 min
IFN-γ; NRF2-proficient BV-2 cells
  IFN-γ level: 24.63 ± 0.64 pg/mL
IFN-γ; NRF2-silenced BV-2 cells
  IFN-γ level: 37.86 ± 1.69 pg/mL
[2]; Hepa-1c1c7 cells
  concentration toxic to the cells in the NQO1 assay: greater than 1 μM
[2]; Hepa-1c1c7 cells, 48 h
  CD (concentration required to double the NQO1 level): did not show the CD value
NF-κB p65; NRF2-proficient BV-2 cells
  NF-κB p65 level: 75.6 ± 5.04 ng/mL
NF-κB p65; NRF2-silenced BV-2 cells
  NF-κB p65 level: 131.57 ± 0.15 ng/mL
IL-6; NRF2-proficient BV-2 cells
  IL-6 level: 431.667 ± 3.06 pg/mL
IL-6; NRF2-silenced BV-2 cells
  IL-6 level: 846.67 ± 11.68 pg/mL
KEAP1-NRF2 interaction
  IC50: 0.9 ± 0.05 µM
IL-1β; NRF2-proficient BV-2 cells
  IL-1β level: 39.93 ± 0.74 pg/mL
IL-1β; NRF2-silenced BV-2 cells
  IL-1β level: 77.33 ± 0.93 pg/mL
COX-2; NRF2-proficient BV-2 cells
  COX-2 level: 4.10 ± 0.10 ng/mL
COX-2; NRF2-silenced BV-2 cells
  COX-2 level: 4.47 ± 0.15 ng/mL
[3]
  Clint: 11.26 ± 2.69 mL/min/g liver
  half-life at 1 μM: 6.46 min
